From patent US11246873B2, “Directed differentiation of oligodendrocyte precursor cells to a myelinating cell fate” (The Scripps Research Institute, priority 2011, dated 2022)
“Also recorded” adds a separate entry of the source.

Key:
[1] = tested on: OPCs; assay: Immunofluorescence analysis of mature oligodendrocyte markers (MBP, MOG, CNP, GalC, O1, O4); assay type: cell-based, rat; conditions: OPCs treated 6 days
Text: FIG. 3. Immunofluorescence analysis of compound treated OPCs using mature oligodendrocyte specific markers. Immunofluorescence staining using specific antibodies for MBP, MOG, and 2′,3′-cyclic nucleotide 3′ phosphodiesterase (CNP). Nuclei were identified using DAPI.
FIG. 4. Immunofluorescence analysis of compound treated OPCs using mature oligodendrocyte specific markers. Immunofluorescence staining using specific antibodies for galactocereberoside (GalC), oligodendrocyte marker O1 (O1) and oligodendrocyte marker O4 (O4). Nuclei were identified using DAPI.
FIG. 14. Compound treatment induces the differentiation of OPCs to mature oligodendrocytes. […] Cells were fixed and immunostained for MBP, MOG, CNP, GalC, O1, or O4.
Immunofluorescence was also used to confirm that the hits were able to induce oligodendrocyte maturation.

[2] = tested on: splenocytes of EAE mice; conditions: mouse, in vivo, ip, 10 mg/kg
Description: (A-K) EAE was induced in mice by injecting PLP and pertussis toxin. […] Total splenocytes were isolated from the mice, stimulated with PMA and ionomycin, and analyzed for various populations of immune cells and cytokine secretion after 48 hours. Protein transport was blocked in cells used for cytokine analysis using Monoeiosin. […] Error bars indicate standard deviation of the mean within each group of 5 mice.
The primary immunological processes involved in MS and EAE are T-cell mediated and the primary treatment paradigms are based on immunomodulatory drugs (T. Kopadze et al., Arch Neurol, 63, 1572 (2006); J. M. Greer et al., J Immunol, 180, 6402 (2007), M. P. Pender and J. M. Greer, curr Allergy Asthma Rep, 7, 285 (2007)).

[3] = tested on: OPCs; assay: qRT-PCR of cell cycle genes in OPCs; assay type: cell-based, rat; conditions: benztropine 1.5 uM
Text: OPCs express mAChRs, predominantly subtypes M1, M3, and M5 (F. Ragheb et al., J Neurochem, 77, 1396 (2001)). […] Activation of M1 and M3 mAChRs is coupled to downstream signal transduction events through phospholipase C, which results in increased intracellular calcium concentrations (F. Ragheb et al., J Neurochem, 77, 1396 (2001)) (FIG. 23C). M2 and M4 mAChR activation inhibits adenylatecyclase, leading to decreased intracellular cAMP levels (C. C. Felder, FASEB J, 9, 619 (1995); M. Lopez-Ilasaca et al., Science, 275, 394 (1997)). […] Acetylcholine is a known regulator of OPC proliferation and, as such, muscarinic receptor subtypes represent a reasonable class of therapeutic targets for the modulation of OPC proliferation and differentiation (F. De Angelis et al., Dev Neurobiol, (2011)).

[4] = tested on: rat optic nerve derived OPCs; assay: High content imaging assay of OPC differentiation (MBP immunostaining, OPERA); assay type: cell-based; conditions: OPCs in differentiation medium (2 ng/ml PDGF), 6 days
Description: FIG. 1A-C. […] The calculated EC50 values were determined using appropriate Graphpad Prism 5.0 curve fitting software. […] OPCs were plated in 384 well plates at 1000 cells per well in OPC media containing basal PDGF-αα (2 ng/mL) and treated with serial dilutions of compounds. Following six days of compound treatment, cells were fixed and subjected to immunofluorescence analysis using anti-myelin basic protein (MBP) antibody. Image acquisition and quantification of MBP staining was performed using the OPERA imaging system.
FIG. 11A-B. Screen to identify inducers of OPC differentiation. (A) OPCs were maintained as proliferating A2B5-positive cells under basal growth conditions (Neurobasal medium, B27 supplement without Vitamin A, non-essential amino acids, L-Glutamine, 30 ng/ml PDGF). OPCs were plated in basal differentiation media (Neurobasal medium, B27 supplement without Vitamin A, non-essential amino acids, L-Glutamine, 2 ng/ml PDGF), treated with DMSO (<0.1%) or thyroid hormone (1 uM), fixed after 6 days in culture, and stained using antibodies for CNP, O4, or MBP. […] (B) Screen strategy using A2B5 positive OPCs cultured under basal differentiation conditions and treated with compounds for 6 days to identify small molecules that induce the differentiation of OPCs to mature, MBP expressing oligodendrocytes.
FIG. 12A-B. Primary hit confirmation. (A) Dose response assay used to confirm primary screening hits and determine potency (EC50). (EC50) is defined as the concentration that results in a half maximal increase in the percentage of total cells that express MBP as detected by immunostaining. […] Cells were fixed and immunostained using antibodies for MBP. Error bars represent standard deviations from 3 replicate experiments. […]
FIG. 21. […] OPCs were plated in differentiation medium (2 ng/ml PDGF) and treated with various concentrations of compounds for 6 days. Cells were fixed and immunostained for MBP.
A large-scale small molecule screen was conducted to identify small molecules that promote the differentiation of oligodendrocyte precursor cells (OPCs) to a mature myelinating fate. High content imaging was used to detect in-well differentiation of rat optic nerve derived OPCs. Rat optic nerve derived OPCs were expanded en masse in OPC media containing 30 ng/mL PDGFαα. To screen for small molecule inducers of OPC differentiation, OPCs (cultured for fewer than 15 passages) were plated in poly-D-lysine coated 384 well culture plates in OPC Media containing 2 ng/mL PDGFαα and immediately treated with compounds at a final concentration of 6 μM (0.6% DMSO). Compound treated cells were incubated at 37° C., 5% CO2 for 6 days. At the end of 6 days, cells were fixed in 4% paraformaldehyde and subjected to immunofluorescence analysis. Anti-Myelin Basic Protein monoclonal antibody (a.a. 129-138, clone 1 monoclonal antibody, Millipore) (1:1000 dilution) in blocking buffere solution (3% BSA, 0.3% Triton X-100 in PBS) was added to fixed and washed cells and incubated at 4° C. overnight.

[5] = tested on: OPCs; assay: Gene expression profile of treated OPCs (Affymetrix rat genome arrays); assay type: cell-based; conditions: 6 days
Description: FIG. 15. Gene expression profile of OPCs differentiated to oligodendrocytes by benztropine treatment. […] OPCs from the same passage were also pelleted and frozen. Total RNA was isolated from the cells and gene expression analysis was performed using rat genome arrays from Affymetrix. […] Data are represented as fold change over DMSO treated controls.
(A) Increased expression (fold change) of mature oligodendrocyte genes in compound treated cells as compared to DMSO treated cells. (B) Decreased expression (fold change) of OPC genes in compound treated cells as compared to DMSO treated cells.
Benztropine-induced in vitro differentiation of rodent OPCS was confirmed by evaluating the transcription and translation levels of the oligodendrocyte specific markers MBP and myelin oligodendroglial glycoprotein (MOG) by RT-PCR and Western blot analysis, respectively (FIGS. 7B and 13). Additionally, in vitro OPC differentiation activity was assessed by immunofluorescent analysis using multiple markers specifically expressed in mature oligodendrocytes (including MBP, MOG, 2′,3′-cyclic-nucleotide 3′-phosphodiesterase (CNP), […] (GalC), oligodendrocyte marker O1 (O1) and oligodendrocyte marker O4 (O4)) following six days of compound treatment (FIG. 14).

SMILES	markers of mature myelinating oligodendrocytes (MBP, MOG, CNP, GalC, O1, O4) by immunofluorescence [1]	number of total splenocytes, CD4+, CD8+, CD4+/CD44Hi and CD8+/CD44Hi T-cells [2]	transcript levels of cyclin D1, cyclin D2, c-Fos, c-Jun [3]	induction of OPC differentiation (MBP staining) [4]	expression of OPC genes and mature oligodendrocyte genes ([5]; versus DMSO)	global clustering of gene expression profiles ([5]; benztropine 2.3 uM)
CN1[C@@H]2CC[C@H]1C[C@@H](OC(c1ccccc1)c1ccccc1)C2 [benztropine]	confirmed the presence of multiple markers of mature myelinating oligodendrocytes; also recorded: expression of mature oligodendrocyte markers	no effect	significantly decreased; also recorded: downregulation in cell cycle genes such as Cyclin D1, Cyclin D2, c-Fos, c-Jun	promote OPC differentiation; also recorded: dose dependent activity	Downregulation of OPC specific genes required for proliferation; also recorded: downregulation of OPC genes and an upregulation of mature oligodendrocyte genes	cluster with those obtained from T3 treated positive control cells; also recorded: clustering of benztropine treated samples with thyroid hormone treated samples
CN1CCN(CCCN2c3ccccc3Sc3ccc(C(F)(F)F)cc32)CC1 [trifluoperazine]	confirmed the presence of multiple markers of mature myelinating oligodendrocytes			promote OPC differentiation		
